Results taken from PubChem BioAssay AID2060895 (Molecular Pharmacology Branch, DTP, NCI, 2025).
Blank lines part the entries; values can stand above or below the compound they belong to.

System: PDC 899932-113-R3-J6 complex spheroid viability
Experiment: Anticancer human tumor 899932-113-R3-J6-PDC patient-derived melanoma cell line growth inhibition [RAS]
Details: for IC50: curve of first compound; for viability, T/C: stronger effect = lower value
Summary of the method: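 Agents were tested in combination matrices in half-log decrements from a top concentration at or near clinical Cmax (10 microM if undetermined). Targets were multi-cell spheroids of tumour lines plus HUVEC and MSC stromal cells.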

[1] = second compound 0.0316 µM, first compound 0.0316 µM
[2] = second compound 0.0316 µM, first compound 0.1 µM
[3] = second compound 0.0316 µM, first compound 0.316 µM
[4] = second compound 0.0316 µM, first compound 1 µM
[5] = second compound 0.1 µM, first compound 0.0316 µM
[6] = second compound 0.1 µM, first compound 0.1 µM
[7] = second compound 0.1 µM, first compound 0.316 µM
[8] = second compound 0.1 µM, first compound 1 µM
[9] = second compound 0.316 µM, first compound 0.0316 µM
[10] = second compound 0.316 µM, first compound 0.1 µM
[11] = second compound 0.316 µM, first compound 0.316 µM
[12] = second compound 0.316 µM, first compound 1 µM
[13] = second compound 1 µM, first compound 0.0316 µM
[14] = second compound 1 µM, first compound 0.1 µM
[15] = second compound 1 µM, first compound 0.316 µM
[16] = second compound 1 µM, first compound 1 µM
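Wherever viability, T/C is given: spheroids exposed to agents for seven days before readout; 100% = DMSO vehicle control wells.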

IC50 (second compound 0.0316 µM): 0.00897 µM
IC50 (second compound 0.1 µM): 0.0101 µM
IC50 (second compound 0.316 µM): 0.0121 µM
IC50 (second compound 1 µM): 0.0109 µM
IC50 (second compound 3.16 µM): 0.0108 µM
IC50 (second compound 10 µM): 0.00902 µM
Compound: O=C(c1ccc(F)c(F)c1Nc1ccc(I)cc1F)N1CC(O)([C@@H]2CCCCN2)C1 + C#Cc1c(F)ccc2cc(O)cc(-c3ncc4c(N5CC6CCC(C5)N6)nc(OCC56CCCN5CC(F)C6)nc4c3F)c12
viability, T/C (second compound 0.0316 µM, first compound 0.00316 µM): 84.7%
viability, T/C (second compound 0.0316 µM, first compound 0.01 µM): 46.4%
viability, T/C [1]: 7.85%
viability, T/C [2]: 3.11%
viability, T/C [3]: 3.11%
viability, T/C [4]: 1.68%
viability, T/C (second compound 0.1 µM, first compound 0.00316 µM): 70.8%
viability, T/C (second compound 0.1 µM, first compound 0.01 µM): 50.3%
viability, T/C [5]: 7.58%
viability, T/C [6]: 3.19%
viability, T/C [7]: 2.68%
viability, T/C [8]: 1.61%
viability, T/C (second compound 0.316 µM, first compound 0.00316 µM): 77.1%
viability, T/C (second compound 0.316 µM, first compound 0.01 µM): 58.5%
viability, T/C [9]: 6.51%
viability, T/C [10]: 5.25%
viability, T/C [11]: 2.94%
viability, T/C [12]: 1.38%
viability, T/C (second compound 1 µM, first compound 0.00316 µM): 83.2%
viability, T/C (second compound 1 µM, first compound 0.01 µM): 53.4%
viability, T/C [13]: 7.2%
viability, T/C [14]: 3.22%
viability, T/C [15]: 2.12%
viability, T/C [16]: 2.67%
viability, T/C (second compound 3.16 µM, first compound 0.00316 µM): 77.6%
viability, T/C (second compound 3.16 µM, first compound 0.01 µM): 53.1%
viability, T/C (second compound 3.16 µM, first compound 0.0316 µM): 8.19%
viability, T/C (second compound 3.16 µM, first compound 0.1 µM): 3.45%
viability, T/C (second compound 3.16 µM, first compound 0.316 µM): 2.09%
viability, T/C (second compound 3.16 µM, first compound 1 µM): 3.3%
viability, T/C (second compound 10 µM, first compound 0.00316 µM): 91.4%
viability, T/C (second compound 10 µM, first compound 0.01 µM): 46%
viability, T/C (second compound 10 µM, first compound 0.0316 µM): 8.65%
viability, T/C (second compound 10 µM, first compound 0.1 µM): 6.24%
viability, T/C (second compound 10 µM, first compound 0.316 µM): 2.33%
viability, T/C (second compound 10 µM, first compound 1 µM): 2.35%

IC50 (second compound 0.000949 µM): 0.00334 µM
IC50 (second compound 0.003 µM): < 0.000949 µM
IC50 (second compound 0.00949 µM): < 0.000949 µM
IC50 (second compound 0.03 µM): < 0.000949 µM
IC50 (second compound 0.0949 µM): < 0.000949 µM
IC50 (second compound 0.3 µM): < 0.000949 µM
Compound: CC1(C)CCC(Nc2ncc(C(F)(F)F)c(-c3c[nH]c4c(P(C)(C)=O)c(C#N)ccc34)n2)CN1 (stereo unspecified) + CCn1c(-c2cc(N3CCN(C)CC3)cnc2C(C)OC)c2c3cc(ccc31)-c1csc(n1)CC(NC(=O)C1CC1C)C(=O)N1CCCC(N1)C(=O)OCC(C)(C)C2
viability, T/C (second compound 0.000949 µM, first compound 0.000949 µM): 64.6%
viability, T/C (second compound 0.000949 µM, first compound 0.003 µM): 51.2%
viability, T/C (second compound 0.000949 µM, first compound 0.00949 µM): 37.5%
viability, T/C (second compound 0.000949 µM, first compound 0.03 µM): 26.1%
viability, T/C (second compound 0.000949 µM, first compound 0.0949 µM): 15.4%
viability, T/C (second compound 0.000949 µM, first compound 0.3 µM): 9.12%
viability, T/C (second compound 0.003 µM, first compound 0.000949 µM): 35%
viability, T/C (second compound 0.003 µM, first compound 0.003 µM): 27.6%
viability, T/C (second compound 0.003 µM, first compound 0.00949 µM): 21.9%
viability, T/C (second compound 0.003 µM, first compound 0.03 µM): 14.6%
viability, T/C (second compound 0.003 µM, first compound 0.0949 µM): 13.2%
viability, T/C (second compound 0.003 µM, first compound 0.3 µM): 7.92%
viability, T/C (second compound 0.00949 µM, first compound 0.000949 µM): 3.56%
viability, T/C (second compound 0.00949 µM, first compound 0.003 µM): 4.08%
viability, T/C (second compound 0.00949 µM, first compound 0.00949 µM): 4.01%
viability, T/C (second compound 0.00949 µM, first compound 0.03 µM): 4.17%
viability, T/C (second compound 0.00949 µM, first compound 0.0949 µM): 5.08%
viability, T/C (second compound 0.00949 µM, first compound 0.3 µM): 5.25%
viability, T/C (second compound 0.03 µM, first compound 0.000949 µM): 2.41%
viability, T/C (second compound 0.03 µM, first compound 0.003 µM): 2.78%
viability, T/C (second compound 0.03 µM, first compound 0.00949 µM): 2.34%
viability, T/C (second compound 0.03 µM, first compound 0.03 µM): 2.28%
viability, T/C (second compound 0.03 µM, first compound 0.0949 µM): 2.45%
viability, T/C (second compound 0.03 µM, first compound 0.3 µM): 2.64%
viability, T/C (second compound 0.0949 µM, first compound 0.000949 µM): 2.17%
viability, T/C (second compound 0.0949 µM, first compound 0.003 µM): 2.21%
viability, T/C (second compound 0.0949 µM, first compound 0.00949 µM): 2.67%
viability, T/C (second compound 0.0949 µM, first compound 0.03 µM): 2.13%
viability, T/C (second compound 0.0949 µM, first compound 0.0949 µM): 1.61%
viability, T/C (second compound 0.0949 µM, first compound 0.3 µM): 2.1%
viability, T/C (second compound 0.3 µM, first compound 0.000949 µM): 2.15%
viability, T/C (second compound 0.3 µM, first compound 0.003 µM): 1.93%
viability, T/C (second compound 0.3 µM, first compound 0.00949 µM): 1.68%
viability, T/C (second compound 0.3 µM, first compound 0.03 µM): 1.68%
viability, T/C (second compound 0.3 µM, first compound 0.0949 µM): 1.86%
viability, T/C (second compound 0.3 µM, first compound 0.3 µM): 1.52%

IC50 (second compound 0.00316 µM): 1.54 µM
IC50 (second compound 0.01 µM): 1.72 µM
IC50 (second compound 0.0316 µM): 1.68 µM
IC50 (second compound 0.1 µM): 1.73 µM
IC50 (second compound 0.316 µM): 1.72 µM
IC50 (second compound 1 µM): 1.61 µM
Compound: CCC(CC)c1cc(NC2CCC(N)C2)n2nccc2n1 (stereo unspecified) + C=CC(=O)N1CCN(c2nc(OCC3CCCN3C)nc3c(F)c(-c4nc(N)cc(C)c4C(F)(F)F)c(Cl)cc23)C(C)C1
viability, T/C (second compound 0.00316 µM, first compound 0.0316 µM): 101%
viability, T/C (second compound 0.00316 µM, first compound 0.1 µM): 96.1%
viability, T/C (second compound 0.00316 µM, first compound 0.316 µM): 105%
viability, T/C (second compound 0.00316 µM, first compound 1 µM): 79.9%
viability, T/C (second compound 0.00316 µM, first compound 3.16 µM): 0.74%
viability, T/C (second compound 0.00316 µM, first compound 10 µM): 0.24%
viability, T/C (second compound 0.01 µM, first compound 0.0316 µM): 107%
viability, T/C (second compound 0.01 µM, first compound 0.1 µM): 98.1%
viability, T/C (second compound 0.01 µM, first compound 0.316 µM): 98.1%
viability, T/C (second compound 0.01 µM, first compound 1 µM): 93.9%
viability, T/C (second compound 0.01 µM, first compound 3.16 µM): 0.74%
viability, T/C (second compound 0.01 µM, first compound 10 µM): 0.62%
viability, T/C [1]: 116%
viability, T/C [2]: 105%
viability, T/C [3]: 99%
viability, T/C [4]: 90%
viability, T/C (second compound 0.0316 µM, first compound 3.16 µM): 0.75%
viability, T/C (second compound 0.0316 µM, first compound 10 µM): 0.23%
viability, T/C [5]: 106%
viability, T/C [6]: 111%
viability, T/C [7]: 94.1%
viability, T/C [8]: 94.1%
viability, T/C (second compound 0.1 µM, first compound 3.16 µM): 0.78%
viability, T/C (second compound 0.1 µM, first compound 10 µM): 1.07%
viability, T/C [9]: 96%
viability, T/C [10]: 99.3%
viability, T/C [11]: 102%
viability, T/C [12]: 93.9%
viability, T/C (second compound 0.316 µM, first compound 3.16 µM): 0.72%
viability, T/C (second compound 0.316 µM, first compound 10 µM): 0.84%
viability, T/C [13]: 109%
viability, T/C [14]: 103%
viability, T/C [15]: 98.2%
viability, T/C [16]: 84.8%
viability, T/C (second compound 1 µM, first compound 3.16 µM): 0.86%
viability, T/C (second compound 1 µM, first compound 10 µM): 0.27%
